# Data published in patent US10577399B2, “Modified lantibiotics and methods of making and using the modified lantibiotics” (priority 2016, dated 2020).
# Entries after “also recorded” stand apart in the source; their conditions may differ.
# Legend:
# [1] = Pharmacokinetics after intravenous dose in mice; type: in vivo; details: mouse, iv, 2.5 mg/kg i. v., BALB/c mice, polynomial second order estimate
# Description: The compounds were dissolved in normal saline for all pharmacokinetic studies. An extraction protocol was developed in vitro by the addition of each compound to commercially bought BALB/c mouse serum. The compounds were extracted by the addition of 70% ACN containing 0.1% TFA/30% methanol containing 0.4% formic acid. The extract was then analyzed by LC-MS using a TSQ Vantage Triple Quad mass spectrometer. A standard curve was generated for each compound using known dilutions of the compounds in serum, which was then extracted. The R-squared values for each standard exceeded 0.98. BALB/c mice were used to evaluate pharmacokinetics of the compounds in vivo. A 2.5 mg/kg i. v. dose was evaluated for native mutacin, R13A, S5G, and double mutant S5A:T14G (FIG. 12A). A polynomial second order was used to estimate the peak plasma concentration and half-life of the R13A. […] Possibly, the Dhb14 residue may protect the peptide from trypsin-like proteases in the blood. […] Thus, taking the dynamics of cell death into account and the pharmacokinetics of the R13A, the R13A in serum is above the inhibitory concentration for S. pneumonia long enough to kill the pathogen.
# Solubility in saline = type: physicochemical; details: saline solution
# trypsin = assay: Trypsin stability screen with M. luteus overlay; type: in vitro ADME; details: 0.5 mg/mL trypsin, 37° C., 30 minutes
# From the text: Selective activity and stability of analogs: Several core peptide mutants are provided that have improved activity against our ATCC strain of S. pneumoniae. These core peptide mutants were also selected based on the absence of a dehydrated residue Dha/Dhb or the proteolytically susceptible arginine residue. […] Although the analog S5G had improved activity against S. pneumoniae ATCC 27336 compared to native mutacin and R13A, the S5G had less activity against all other tested strains of S. pneumoniae. […] 4) The R13A mutation prevents feedback inhibition of mutacin 1140 production, leading to a 100% increase in yield from the culture liquor. […] They are important for immunoregulation and blood coagulation. The observed increase in stability of the R13A analog will likely be advantageous in an animal model.
# M. luteus ATCC 10240 = type: cell-based, Micrococcus luteus
# Method in brief: (§1)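 Broth microdilution: antibiotic in 50% acetonitrile, 2-fold dilutions from 640 μg/mL stock down to 0.156 μg/mL, 10 μL per well plus 190 μL of ~10^5 CFU bacteria grown in THyex at 37 °C. MIC read as concentration preventing visible growth after 24 h.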
# B. subtilis PY79 cells = assay: Microscopy lipid II competition assay with fluorescein labeled nisin; type: cell-based, Bacillus subtilis; details: pretreatment 10 μg/mL for 15 minutes
# Description: B. subtilis PY79 was grown and treated with fluorescein labeled peptide as previously described^39. A fresh plate of B. subtilis was used to inoculate THyex broth and incubated approximately 16 hours at 37° C. The culture was diluted 20-fold and placed back in the incubator for 3 hours at 37° C. Then, 100 μl of the culture was incubated with the antibiotic (10 μg/mL) for 15 minutes. The cells were pelleted and resuspended in 100 μl of phosphate buffer solution (PBS). The wash step was repeated three times before fixing with 1.6% formaldehyde in PBS. After fixation the cells were washed with PBS three more times and the remaining pellet was suspended in 50 μL of PBS. The sample (30 μL) was added to a slide and observed using an Olympus confocal microscope with a 100×/0.90 dry objective. A 488 nm argon laser was used to excite the fluorophore. For the competition assay, the bacterial culture was initially incubated with mu1140-COOH or native mutacin 1140 at a concentration of 10 μg/mL for 15 minutes, washed, and resuspended in fresh media. 10 μg/mL of fluorescein labeled nisin was then added for 15 minutes, before following the wash protocol previously stated.
# [2] = Lipid II binding assay by thin layer chromatography; details: 3:10 peptide:lipid II ratio
# Description: Lipid II was a kind gift from Eefjan Breukink and was resuspended in a 1:1 Methanol:Chloroform solution. The lipid II binding assay using thin layer chromatography (TLC) was done as previously described^39. The mobile solvent consisted of consisted of butanol:acetic acid:water:pyridine (15:3:12:10 [vol/vol/vol/vol]). A 0.2 mM solution of mutacin 1140 or mu1140-COOH in 10 μL of solution A was mixed with lipid II (final […]) for 1 hour in a sealed glass vial. This corresponded to a ratio 3:10 peptide:lipid II ratio. All of the reaction mixtures and the appropriate controls were spotted (5 μL) 2 cm from the bottom of the plate. These spots define the origin of the plate. […] The mobile phase was allowed to climb up the plate until it reached a centimeter from the top. The plate was allowed to dry before staining with iodine.
# With the loss of activity associated with a free carboxyl group in mu1140-COOH, the basis for the loss in activity was studied. The mechanism of action for class I lantibiotics has been determined to be due to lipid II binding^34-36. In particular, rings A and B are believed to form a cage-like structure around the pyrophosphate moiety of lipid II^37. The latter half of the peptide is predicted to enhance binding and recruit other lipid II-lantibiotic molecules into a large lipid II-lantibiotic complex^16. […]
# S. pneumoniae ATCC 27336 = type: cell-based, Streptococcus pneumoniae
# Method in brief: as §1
SMILES,"half-life ([1]; in vivo, read-out: estimated half-life) [h]","Cmax ([1]; plasma, read-out: peak plasma concentration) [ng/mL]",solubility (Solubility in saline) [µg/mL],stability to trypsin (trypsin),"MIC (M. luteus ATCC 10240; Table 10, indicator strain Micrococcus luteus) [µg/mL]",binding of fluorescein labeled nisin after pretreatment of cells (B. subtilis PY79 cells),iodine stain at the origin of the TLC plate when mixed with lipid II [2],"MIC (μg/mL) S. pneumoniae (S. pneumoniae ATCC 27336; Table 7, S. pneumoniae ATCC 27336)","reduction in activity (MIC, S. pneumoniae ATCC 27336) (S. pneumoniae ATCC 27336; vs wild type mutacin 1140) [fold]","MIC (μg/mL) M. luteus (M. luteus ATCC 10240; Table 7, chemically modified analogs) [µg/mL]","reduction in activity compared to wild type mutacin 1140 (MIC, M. luteus) (M. luteus ATCC 10240; vs wild type mutacin 1140) [fold]"
C=C1NC(=O)[C@H](Cc2c[nH]c3ccccc23)NC(=O)C(NC(=O)[C@H](CCCCN)NC(=O)[C@@H](N)Cc2ccccc2)CSC[C@@H](C(=O)NC2C(=O)N3CCC[C@H]3C(=O)NCC(=O)N[C@H](C(=O)N[C@@H](C)C(=O)N[C@@H](C)C(=O)NC(=CC)C(=O)NCC(=O)NC3CSC[C@@H]4NC(=O)[C@H](Cc5ccc(O)cc5)NC(=O)[C@@H](CS/C=C\NC4=O)NC(=O)[C@H](CC(N)=O)NC(=O)[C@H](Cc4ccccc4)NC3=O)CSC2C)NC(=O)[C@H](CC(C)C)NC1=O (some centres unmarked) [Mutant R13A],1.17,1700,> 2000,improved stability,0.0625,,,,,,
C=C1NC(=O)[C@H](Cc2c[nH]c3ccccc23)NC(=O)[C@H](NC(=O)[C@H](CCCCN)NC(=O)[C@@H](N)Cc2ccccc2)CSC[C@@H](C(=O)N[C@H]2C(=O)N3CCC[C@H]3C(=O)NCC(=O)N[C@H](C(=O)N[C@@H](C)C(=O)N[C@@H](CCCNC(=N)N)C(=O)N/C(=C\C)C(=O)NCC(=O)N[C@@H]3CSC[C@@H]4NC(=O)[C@H](Cc5ccc(O)cc5)NC(=O)[C@@H](CSC[C@@H](C(=O)O)NC4=O)NC(=O)[C@H](CC(N)=O)NC(=O)[C@H](Cc4ccccc4)NC3=O)CS[C@H]2C)NC(=O)[C@H](CC(C)C)NC1=O [Mu1140 - COOH],,,,,,no typical in vivo fluorescence pattern was observed; also recorded: drastically reduces binding of fluorescein labeled nisin,faint stain,greater than 64 μg/mL,> 128,32,256
